Assay results: PubChem BioAssay AID1963845 (Molecular Pharmacology Branch, DTP, NCI, 2024)
Where “and” joins values, the source holds several entries; their conditions need not be identical. Equal values may be shown once.

Tested on: 429239-143-T-J1-PDC complex spheroid viability
Experiment: Anticancer human tumor 429239-143-T-J1-PDC patient-derived small cell lung carcinoma cell line growth inhibition [POLQ]
Conditions: for viability, T/C: stronger effect = lower value
Experimental: Multicellular complex tumor spheroid response to Polymerase (POL) inhibitors (novobiocin, ART-558, RP6685) in combination with a variety of drugs and investigational agents in selected tumor cell lines
The POL inhibitors (novobiocin, ART-558, and RP6685) were evaluated both individually and in combination with standard of care and investigational anticancer small molecules within a complex spheroid model of solid tumors. . Complex spheroids include a stromal component modeled by human endothelial cells (HUVEC) and fibroblasts modeled by human mesenchymal stem cells (MSCs). The concentration ranges selected for each drug and investigational agent were based upon clinically achievable concentrations if the clinical Cmax of the agent was known.
Compounds. The drugs and investigational agents: novobiocin (NSC847541), ART-558 (NSC835418), RP-6685 (NSC848927), peposertib (NSC802822), ceralasertib (NSC780249), elimusertib (NSC800525), camonsertib (NSC841442), AZD-1390 (NSC803789), olaparib (NSC753686), talazoparib (NSC767125), rucaparib (NSC756644), sotorasib (NSC818433), MRTX-1133 (NSC836407), SN-38 (NSC673596), topotecan (NSC609699), epotoside (NSC141540), doxorubicin (NSC123127), gemcitabine (NSC613327), 5-fluorouracil (NSC19893), paclitaxel (NSC125973), vemurafenib (NSC761431), MSA-2 (NSC828583), SN-011 (NSC837082), adavosertib (NSC754352), prexasertib (NSC758257), carboplatin (NSC241240) and oxaliplatin (NSC266046), were obtained from the National Cancer Institute (NCI) Developmental Therapeutics Program Chemical Repository (21). The FDA-approved anticancer drug set is available from the Developmental Therapeutics Program at https://dtp.cancer.gov/organization/dscb/obtaining/. […] The stock solutions were prepared in dimethyl sulfoxide (DMSO, Sigma-Aldrich, St. Louis, MO, cat. D2650), except for the platinum compounds which were prepared in saline (Quality Biological, Gaithersburg, MD, cat. 114-055-101), at 800-fold the tested concentration and stored at -70 degrees C prior to their use. All drugs and investigational agents were tested over a range starting from a high concentration at or near the clinical Cmax and decreasing in half-log increments. If the clinical Cmax for an agent had not been determined, the highest concentration tested was 10 microM, except for SN-38, which was tested at a high concentration of 1 microM.
Cell Culture. All cells were maintained in an incubator at 37 degrees C and 5% CO2 with 95% humidity. The PDC lines were cultured according to standard operating procedures established by the NCI PDMR (https://pdmr.cancer.gov). Table 3 of the manuscript, lists the cell lines along with the number of the three cell types plated to form the mct-spheroids and media for tumor cell growth. After thawing, all PDC lines, except 997537-175-T-J1-PDC and 415267-285-R-J2-PDC, were cultured in Matrigel-coated flasks prepared with a working solution of 1X Ham's F-12 nutrient mix, without supplementation (Thermo Fisher Scientific, cat. 11765054), 100 U/mL penicillin-streptomycin (Thermo Fisher Scientific, cat. 15140122), and 2.5% Matrigel (Corning Inc., Corning, NY, cat. 354248) for the first three passages. The two PDC lines 997537-175-T-J1-PDC and 415267-285-R-J2-PDC were cultured on uncoated flasks. The 857933-349-R-J2-PDC line was cultured in 6C/Colon 1B media containing advanced DMEM/F-12 (Thermo Fisher Scientific, cat. 12634028), 10 mM HEPES (Thermo Fisher Scientific, cat. 15630080), 1X GlutaMAX supplement (Thermo Fisher Scientific, cat. 35050061), 0.1 mg/mL primocin (InvivoGen, San Diego, CA, cat. ant-pm-2), 10% defined fetal bovine serum, heat inactivated (HyClone Laboratories Inc., Logan, UT, cat. SH30070.03HI), 50% L-WRN conditioned media (ATCC, cat. CRL-3276), 1.25 mM N-Acetyl-L-cysteine (Sigma-Aldrich, cat. A9165), 10 mM nicotinamide (Sigma-Aldrich, cat. N0636), 1X B-27 supplement (Thermo Fisher Scientific, cat. 17504044), 1X N-2 supplement (Thermo Fisher Scientific, cat. […]
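Also: luminescence signal used as surrogate measure of viable cells; spheroids exposed to compounds for seven days before readout.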
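For viability, T/C in this document: 100% = DMSO vehicle control viability as luminescence relative to vehicle.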

SMILES: CCCS(=O)(=O)Nc1ccc(F)c(C(=O)c2c[nH]c3ncc(-c4ccc(Cl)cc4)cc23)c1F
- viability, T/C (compound 0.0316 µM): 94.3% and 101% and 99.8%
- viability, T/C (compound 0.1 µM): 96.1% and 110% and 85.9%
- viability, T/C (compound 0.316 µM): 100% and 104% and 94.3%
- viability, T/C (compound 1 µM): 92.9% and 106% and 89.7%
- viability, T/C (compound 3.16 µM): 97.2% and 113% and 91%
- viability, T/C (compound 10 µM): 79.2% and 84.4% and 48.5%
- IC50 (curve of compound): > 10000 nM and 9610 nM

SMILES: C=CC(=O)N1CCN(c2nc(=O)n(-c3c(C)ccnc3C(C)C)c3nc(-c4c(O)cccc4F)c(F)cc23)C(C)C1 (stereo unspecified)
- viability, T/C (compound 0.0316 µM): 96.4% and 97.7% and 104%
- viability, T/C (compound 0.1 µM): 100% and 103% and 90.4%
- viability, T/C (compound 0.316 µM): 98.7% and 103% and 101%
- viability, T/C (compound 1 µM): 105% and 101% and 102%
- viability, T/C (compound 3.16 µM): 114% and 103% and 113%
- viability, T/C (compound 10 µM): 112% and 102% and 108%
- IC50 (curve of compound): > 10000 nM

SMILES: CC1COCCN1c1cc(C2(O)CC3CCC(C2)O3)c2cnn(-c3ccn[nH]3)c2n1 (stereo unspecified)
- viability, T/C (compound 0.0316 µM): 67.2% and 61.1% and 90.8%
- viability, T/C (compound 0.1 µM): 45.3% and 34.4% and 78.8%
- viability, T/C (compound 0.316 µM): 17.6% and 17% and 52.5%
- viability, T/C (compound 1 µM): 10.2% and 7.95% and 6.96%
- viability, T/C (compound 3.16 µM): 9.58% and 7.43% and 2.96%
- viability, T/C (compound 10 µM): 4.72% and 5.39% and 2.25%
- IC50 (curve of compound): 77.6 nM and 51 nM and 324 nM

SMILES: CCc1cc2c(N3CCc4c(cc(Cn5ccnc5)cc4-c4cn(C)nc4C(F)(F)F)C3=O)cc(C)nc2c(OC)n1
- viability, T/C (compound 0.0316 µM): 97.3% and 95.1% and 89.2%
- viability, T/C (compound 0.1 µM): 77.4% and 91.2% and 89.8%
- viability, T/C (compound 0.316 µM): 63.9% and 85.3% and 90%
- viability, T/C (compound 1 µM): 48% and 81.4% and 78.2%
- viability, T/C (compound 3.16 µM): 42.7% and 76.8% and 69.8%
- viability, T/C (compound 10 µM): 38.6% and 45.6% and 43.8%
- IC50 (curve of compound): 977 nM and 8650 nM and 7620 nM

SMILES: COc1cccc2c1C(=O)c1c(O)c3c(c(O)c1C2=O)CC(O)(C(=O)CO)CC3OC1CC(N)C(O)C(C)O1 (stereo unspecified)
- viability, T/C (compound 0.0316 µM): 64.3% and 87.3% and 71.1%
- viability, T/C (compound 0.1 µM): 12.8% and 42.3% and 14.2%
- viability, T/C (compound 0.316 µM): 11.6% and 7.66% and 13.1%
- viability, T/C (compound 1 µM): 0.3% and 0.77% and 0.76%
- viability, T/C (compound 3.16 µM): 0.21% and 0.16% and 0.18%
- viability, T/C (compound 10 µM): 0.24% and 0.16% and 0.14%
- IC50 (curve of compound): 44.1 nM and 82.1 nM and 49.7 nM

SMILES: CNCc1ccc(-c2[nH]c3cc(F)cc4c3c2CCNC4=O)cc1 + Cc1cccc(N(C)C(=O)C2C(O)CCN2c2nc(C)cc(C(F)(F)F)c2C#N)c1
- IC50 (curve of first compound, second compound 0.0316 µM): 3090 nM
- IC50 (curve of first compound, second compound 0.1 µM): 2600 nM
- IC50 (curve of first compound, second compound 0.316 µM): 2210 nM
- IC50 (curve of first compound, second compound 1 µM): 2220 nM
- IC50 (curve of first compound, second compound 3.16 µM): 2450 nM
- IC50 (curve of first compound, second compound 10 µM): 3240 nM
- viability, T/C (second compound 0.0316 µM, first compound 0.0316 µM): 113%
- viability, T/C (second compound 0.0316 µM, first compound 0.1 µM): 83.8%
- viability, T/C (second compound 0.0316 µM, first compound 0.316 µM): 85.1%
- viability, T/C (second compound 0.0316 µM, first compound 1 µM): 75%
- viability, T/C (second compound 0.0316 µM, first compound 3.16 µM): 51%
- viability, T/C (second compound 0.0316 µM, first compound 10 µM): 21.1%
- viability, T/C (second compound 0.1 µM, first compound 0.0316 µM): 90.9%
- viability, T/C (second compound 0.1 µM, first compound 0.1 µM): 92.7%
- viability, T/C (second compound 0.1 µM, first compound 0.316 µM): 79.4%
- viability, T/C (second compound 0.1 µM, first compound 1 µM): 66.2%
- viability, T/C (second compound 0.1 µM, first compound 3.16 µM): 47.5%
- viability, T/C (second compound 0.1 µM, first compound 10 µM): 19.7%
- viability, T/C (second compound 0.316 µM, first compound 0.0316 µM): 97.8%
- viability, T/C (second compound 0.316 µM, first compound 0.1 µM): 94.7%
- viability, T/C (second compound 0.316 µM, first compound 0.316 µM): 75.8%
- viability, T/C (second compound 0.316 µM, first compound 1 µM): 70.7%
- viability, T/C (second compound 0.316 µM, first compound 3.16 µM): 40%
- viability, T/C (second compound 0.316 µM, first compound 10 µM): 22.7%
- viability, T/C (second compound 1 µM, first compound 0.0316 µM): 86.7%
- viability, T/C (second compound 1 µM, first compound 0.1 µM): 82.3%
- viability, T/C (second compound 1 µM, first compound 0.316 µM): 72.3%
- viability, T/C (second compound 1 µM, first compound 1 µM): 66.2%
- viability, T/C (second compound 1 µM, first compound 3.16 µM): 42.4%
- viability, T/C (second compound 1 µM, first compound 10 µM): 24.4%
- viability, T/C (second compound 3.16 µM, first compound 0.0316 µM): 91.3%
- viability, T/C (second compound 3.16 µM, first compound 0.1 µM): 84.9%
- viability, T/C (second compound 3.16 µM, first compound 0.316 µM): 95.5%
- viability, T/C (second compound 3.16 µM, first compound 1 µM): 62.9%
- viability, T/C (second compound 3.16 µM, first compound 3.16 µM): 47.8%
- viability, T/C (second compound 3.16 µM, first compound 10 µM): 22%
- viability, T/C (second compound 10 µM, first compound 0.0316 µM): 80.3%
- viability, T/C (second compound 10 µM, first compound 0.1 µM): 91.4%
- viability, T/C (second compound 10 µM, first compound 0.316 µM): 83.8%
- viability, T/C (second compound 10 µM, first compound 1 µM): 61.8%
- viability, T/C (second compound 10 µM, first compound 3.16 µM): 54.2%
- viability, T/C (second compound 10 µM, first compound 10 µM): 23%

SMILES: CCc1c2c(nc3ccc(O)cc13)-c1cc3c(c(=O)n1C2)COC(=O)[C@]3(O)CC
- viability, T/C (compound 0.00316 µM): 14.7% and 8.09% and 15.9%
- viability, T/C (compound 0.01 µM): 15.4% and 8.23% and 16.2%
- viability, T/C (compound 0.0316 µM): 15.1% and 8.92% and 18.4%
- viability, T/C (compound 0.1 µM): 18% and 6.71% and 16.7%
- viability, T/C (compound 0.316 µM): 14.7% and 5.07% and 16%
- viability, T/C (compound 1 µM): 4.2% and 2.5% and 5.57%
- IC50 (curve of compound): < 3.16 nM

SMILES: CCc1cc2c(N3CCc4c(cc(Cn5ccnc5)cc4-c4cn(C)nc4C(F)(F)F)C3=O)ccnc2c(OC)n1
- viability, T/C (compound 0.0316 µM): 91% and 106% and 101%
- viability, T/C (compound 0.1 µM): 85.1% and 102% and 98.5%
- viability, T/C (compound 0.316 µM): 75.5% and 95.9% and 87.7%
- viability, T/C (compound 1 µM): 61.2% and 86.6% and 91.9%
- viability, T/C (compound 3.16 µM): 55.3% and 83.3% and 73.6%
- viability, T/C (compound 10 µM): 32.2% and 55.7% and 54.7%
- IC50 (curve of compound): 3300 nM and > 10000 nM
